Source: paper PMC6768323, “Adverse Maternal, Fetal, and Postnatal Effects of Hexafluoropropylene Oxide Dimer Acid (GenX) from Oral Gestational Exposure in Sprague-Dawley Rats” (Environmental Health Perspectives, 2019)
Values joined by “and” are separate entries in the source; they are usually repeats but may differ in a detail not shown here. Equal entries are not always repeated.

Test system: PPAR signaling pathway genes, maternal liver
Assay: Maternal liver (GD18) PPAR gene array, fold induction versus control; oral dosing GD14-18; rows per gene in dose order 1, 3, 10, 30, 62.5, 125, 250, 500 mg/kg/d
Format: in vivo, Sprague-Dawley rats
Description: A total of three blocks of 15 dams per block were dosed once daily from GD14–18 with either water vehicle (control) or HFPO-DA to evaluate fetal and maternal effects (Figure 1A). The first block of dams was dosed with control, 62.5, 125, 250, or 500mg/kg HFPO-DA ( n=3 dams for each). The second and third blocks of dams were dosed with control, 1, 3, 10, or 30mg/kg HFPO-DA ( n=3 per dose per block). Total sample sizes were n=9 for control, n=6 for 1, 3, 10, 30mg/kg , and n=3 for 62.5, 125, 250, and 500mg/kg HFPO-DA. In the first two blocks, spanning the entire dose range, we evaluated fetal testis testosterone production, fetal testis gene expression, fetal and maternal liver gene expression, fetal body weight, and maternal serum thyroid hormone and lipid concentrations. In the third block, encompassing the lower dose range utilized here, we collected fetal plasma for measuring HFPO-DA concentrations. Across all three blocks we evaluated maternal weight gain during dosing, reproductive output (number of fetuses and resorptions), maternal serum HFPO-DA concentration, and maternal liver weight at necropsy.
For the first two blocks, spanning the full dose range, late gestation (GD18) dams were euthanized by decapitation at ∼2h after the final oral dose [ ∼0830–1000 hours Eastern Standard Time (EST)]. Trunk blood was collected and serum isolated via centrifugation ( 10,000×g for 15 min at 4°C) in vacutainer tubes, transferred to 1.5-mL microcentrifuge tubes and stored at −80°C . Dam liver weight was recorded and a sample of liver tissue was collected into a polypropylene microcentrifuge tube containing 500μL TRIzol Reagent (Invitrogen) on ice. Fetuses were removed and two randomly selected fetuses per litter were weighed. Fetal testes were collected from all male pups with a single testis from the first three males used for determination of ex vivo testosterone production and the remaining testes were homogenized and preserved in TRIzol Reagent for gene expression analysis. The liver was collected from a single, randomly selected fetus per dam/litter for gene expression analysis and transferred to a polypropylene microcentrifuge tube containing 500μL TRIzol Reagent (Invitrogen) on ice. Both dam and fetal liver samples were individually homogenized using a Bullet Blender (Next Advance) with 1-mm zirconium oxide beads, transferred to clean tubes, and stored at −80°C prior to RNA extraction (see below). Ex vivo fetal testis testosterone production was measured as previously reported ([Wilson et al. 2004b]) except the radioimmunoassay (RIA) utilized here was supplied by ALPCO (Catalog No. 72-TESTO-CT2, ALPCO). Briefly, one testis was isolated from each of three separate male fetuses in each litter and incubated in a humidified atmosphere at 37°C for 3 h in 500μL of M-199 media (phenol red–free; Hazelton Biologics, Inc.) supplemented with 10% dextran-coated charcoal-stripped fetal bovine serum (Hyclone Laboratories) in 24-well plates under gentle agitation. After incubation, media were removed and stored in siliconized microcentrifuge tubes at −80°C until RIA analyses, which were performed according to manufacturer specifications.
Gene expression in fetal testes and fetal/maternal livers was assessed using reverse transcriptase real-time PCR of cDNA synthesized from RNA extracted from sample homogenates. RNA extraction was conducted according to TRIzol Reagent manufacturer specifications using chloroform and isopropanol. Following extraction, RNA was purified using the RNeasy Mini Kit (Catalog No. 74104; Qiagen). RNA concentration and purity (260:280 ratio ≥1.8 ) were determined with a NanoDrop 2000 spectrophotometer (Thermo Scientific). For the fetal testes, a 96-well gene array plate was previously custom designed to contain 89 target genes and 3 housekeeping genes, an intra-assay control, a genomic DNA control, a reverse transcriptase control, and a positive PCR control [see Table S1; SABioscience; ([Hannas et al. 2012])]. […]

With `O=C(O)C(F)(OC(F)(F)C(F)(F)C(F)(F)F)C(F)(F)F` (centres unmarked) [HFPO-DA, Hexafluoropropylene oxide dimer acid] the Acox3 (dose order) was 1.3 fold and 0.9 fold and 1.2 fold and 1.1 fold and 1.0 fold, the Acsl1 (dose order) was 1.3 fold and 1.5 fold and 1.1 fold and 1.7 fold and 1.6 fold and 1.8 fold and the Acsl4 (dose order) was 1.0 fold and 0.7 fold and 0.9 fold and 1.3 fold and 1.2 fold. For the same compound, the Angptl4 (dose order) was 2.3 fold and 3.4 fold and 2.1 fold and 3.6 fold and 3.0 fold and 2.9 fold and 2.5 fold, the Apoa1 (dose order) was 0.9 fold and 1.0 fold and 0.7 fold and the Apoe (dose order) was 1.2 fold and 0.8 fold and 0.9 fold and 0.7 fold. For the same compound, the Cd36 (dose order) was 0.8 fold and 1.2 fold and 0.9 fold and 1.0 fold and 1.1 fold, the Clu (dose order) was 1.1 fold and 1.4 fold and 0.8 fold and 1.3 fold and 1.2 fold and 1.5 fold and 1.6 fold and the Creb1 (dose order) was 1.1 fold and 0.9 fold and 1.0 fold and 0.8 fold. For the same compound, the Crebbp (dose order) was 1.3 fold and 0.9 fold and 1.0 fold, the Dgat1 (dose order) was 1.1 fold and 1.3 fold and 1.2 fold and 1.5 fold and 1.6 fold and 1.8 fold and 1.9 fold and the Ep300 (dose order) was 1.3 fold and 1.4 fold and 0.8 fold and 1.1 fold and 1.0 fold. For the same compound, the Etfdh (dose order) was 1.2 fold and 1.6 fold and 1.4 fold and 1.5 fold, the Fabp5 (dose order) was 1.0 fold and 1.3 fold and 1.2 fold and 0.8 fold and the Fabp7 (dose order) was 2.0 fold and 1.1 fold and 1.9 fold and 1.8 fold and 1.3 fold and 1.7 fold. The Gk (dose order) was 1.2 fold and 1.1 fold and 1.3 fold and 1.4 fold and 0.8 fold, the Hif1a (dose order) was 1.2 fold and 1.0 fold and 1.1 fold and 1.3 fold and the Hspd1 (dose order) was 1.1 fold and 1.2 fold and 1.3 fold and 1.9 fold and 1.8 fold and 2.2 fold and 2.1 fold. The Ilk (dose order) was 1.2 fold and 0.9 fold and 1.1 fold and 1.0 fold, the Klf10 (dose order) was 1.8 fold and 2.0 fold and 1.5 fold and 2.5 fold and 2.3 fold and 2.4 fold and the Lpin1 (dose order) was 1.2 fold and 1.4 fold and 0.8 fold and 1.1 fold and 1.0 fold and 0.9 fold. For the same compound, the Med1 (dose order) was 1.2 fold and 1.3 fold and 0.7 fold and 1.0 fold and 0.8 fold and 0.9 fold and 1.1 fold, the Ncoa3 (dose order) was 1.4 fold and 0.8 fold and 1.0 fold and 0.9 fold and the Ncoa6 (dose order) was 1.4 fold and 1.2 fold and 1.1 fold and 0.7 fold and 0.8 fold and 0.9 fold. For the same compound, the Nr1h3 (dose order) was 1.1 fold and 1.5 fold and 0.8 fold and 1.6 fold and 1.3 fold, the Pdpk1 (dose order) was 0.9 fold and 1.0 fold and 0.8 fold and 1.1 fold and the Pltp (dose order) was 1.2 fold and 0.7 fold and 0.9 fold and 1.4 fold and 1.1 fold and 1.0 fold. The Ppara (dose order) was 0.8 fold and 0.7 fold and 0.6 fold and 1.0 fold and 0.9 fold and 1.1 fold, the Ppargc1b (dose order) was 1.1 fold and 1.3 fold and 0.9 fold and 0.8 fold and 0.7 fold and the Pprc1 (dose order) was 1.2 fold and 1.0 fold and 1.4 fold and 1.5 fold. The Pten (dose order) was 0.8 fold and 1.1 fold and 0.9 fold and 1.0 fold, the Pyy (dose order) was 1.6 fold and 1.3 fold and 1.1 fold and 1.2 fold and 2.0 fold and 2.1 fold and 1.8 fold and the Rxra (dose order) was 1.2 fold and 1.4 fold and 0.7 fold and 1.0 fold and 1.1 fold. For the same compound, the Rxrb (dose order) was 1.5 fold and 1.4 fold and 0.9 fold and 1.1 fold and 0.8 fold and 1.0 fold, the Rxrg (dose order) was 1.5 fold and 1.6 fold and 1.1 fold and 1.7 fold and 1.3 fold and the Sirt1 (dose order) was 1.0 fold and 1.1 fold and 0.8 fold and 0.9 fold. For the same compound, the Slc27a1 (dose order) was 1.5 fold and 1.6 fold and 0.9 fold and 1.4 fold and 1.1 fold and 1.0 fold and 1.3 fold, the Slc27a2 (dose order) was 1.3 fold and 1.8 fold and 2.1 fold and 2.2 fold and 2.3 fold and the Slc27a4 (dose order) was 1.3 fold and 1.5 fold and 0.8 fold and 1.0 fold and 1.1 fold and 0.9 fold. The Tgs1 (dose order) was 0.8 fold and 0.9 fold and 0.7 fold and 1.1 fold and the “number of up-regulated genes shared by maternal and fetal livers” value (rat, in vivo) was 16 genes.
